Reference: patent US8969332B2, “Aryloxy dihalopropenyl ether compounds and uses thereof” (Sinochem Corporation, priority 2011, dated 2015)
Read-outs that look alike come from different tables or passages of the source.

Assays:
diamond back moth [1] = assay: Insecticidal activity against diamond back moth in greenhouse (airbrush spraying of cabbage leaf discs); format: in vivo; details: Plutella xylostella, foliar, 72 h, read-out: Mortality of diamond back moth (%)
Method: (§1) Compounds were dissolved in mixed solvent (acetone:methanol=1:1), and diluted to required concentration with water containing 0.1% of tweed 80.
(§2) The method of spraying by airbrush: The cabbage leaves were made into plates of 2 cm diameter by use of punch. A test solution (0.5 ml) was sprayed by airbrush at the pressure of 0.7 kg/cm^2 to both sides of every plate. 10 Second instar larvae were put into the petri-dishes after the leaf disc air-dried and 3 replicates were set for each treatment. Then the insects were maintained in observation room (25° C., 60˜70% R.H.), Scores were conducted and mortalities were calculated after 72 h.

armyworm = assay: Insecticidal activity against armyworm in greenhouse (airbrush spraying of corn leaf discs); format: in vivo; details: 72 h; for control of the armyworm: 600 mg/L; for Mortality of armyworm (%) / mortality at 10 µg/mL / mortality at 100 µg/mL: parallel determination; for mortality at 10 µg/mL / mortality at 100 µg/mL: Mythimna separata, foliar
Method: as §1
as §2, with “corn” for “cabbage”, “Petri-dishes” for “petri-dishes”, “thr” for “for”, “R.H.).” for “R.H.),”

Heliothis virescens = details: 100 ppm; cited from earlier work
Prodenia litura = details: 500 ppm; cited from earlier work
housefly = assay: Insecticidal activity against housefly (diet incorporation test); format: in vivo; details: Musca domestica, 72 h, read-out: Mortality of housefly (%)
Method: Diet Incorporation Tests: the test compound was dissolved with 90% acetone to obtain the mother liquor after weigh accurately with an electronic balance. The required concentration solution was got by diluting to the mother liquor with a certain concentration milk powder solution according to the designed doses in the experiment. Then, the diluted concentration solution was evenly put into the petri dishes with diameter of 6 cm inside which filter paper was placed by using a transferring-liquid gun ([…], solution each petri dish). Finally the 3rd instars of larvae were put into petri dishes with 10 each petri dish, and 3 replicates were set for each treatment. Then the insects were maintained in observation room (25° C., 60˜70% R.H.). Scores were conducted and mortalities were calculated after 72 h.

beet armyworm [2] = assay: Insecticidal activity against beet armyworm (24 well-plate artificial diet emulsion method); format: in vivo; details: Spodoptera exigua, 72 h, read-out: Mortality of beet armyworm (%)
Method: as §1
24 well-plate artificial diet emulsion method: artificial food was added to each well of the 24 well-plate, after the artificial food was cooled, the prepared solution were added into the 24 well-plate according to the experimental design by order of chemical concentrations from low to high, by gently shaking the even emulsion film can be formed on the surface of the diet. 24 neat and healthy larvae were put into the 24 well-plate (one larvae each well) after the film was air-dried and 3 replicates were set for each treatment. Then the insects were maintained in observation room (25° C., 60˜70% R.H.). Scores were conducted and mortalities were calculated after 72 h.

diamond back moth [3] = assay: Field trial against diamond back moth on cabbage; format: in vivo, Plutella xylostella; details: 105 g a.i./hm^2, 10% EC
Method: (§3) Calculation Method: Decrease rate of insects (%)=(the number of insects before application−the number of insects after application) the number of insects before application×100 Control efficacy (%)=(decrease rate of insects in treated area decrease rate of insects in blank comparative area)/(100−decrease rate of insects in blank comparative area)×100
The trial was carried out in the test filed of Shenyang Research Institute of Chemical industry Ltd. The trial crop is cabbage (Variety: Zhonggan NO 8.). The dosage of the compound 1 are 75, 105, 150 g a.i./hm^2 and comparative agent pyridalyl is 105 g a.i./hm^2. The agent was applied once on 13 Jun. 2011. The application tool is Shandongweishi WS-16P type backpack manual sprayer. Evenly spraying to whole cabbage which is in rosette stage was conducted. Diamond back moth is originated at the peak time. The plot area is 10 m^2, 3 replicates and randomized block arrangement were set. The amount of spray liquid is 750 L/hm^2. It was sunny with the highest temperature of 29° C., and the lowest of 17° C. on the day of the application of the spray. The methods of investigation and calculation are the same as Example 13.

beet armyworm [4] = assay: Field trial against beet armyworm on cabbage; format: in vivo, Laphygma exigua; details: 105 g a.i./hm^2, 10% EC
Method: The trial was carried out in rain shelter area of experimental field of Wuhan vegetable research institute, the test crop is cabbage (variety: Jingfeng NO. 1). The dosage of the invention compound 1 (Example 11, 10% EC, same as below) are 75, 105, 150 g a.i./hm^2. and the comparative agent pyridalyl (10% EC, commercially available, same as below) is 105 g a.i./hm^2. The agent was applied on 9 Oct. 2011. The application tool is Linong 16HD-400 type backpack spray. Evenly spraying to whole cabbage which is in rosette stage was conducted. Beet armyworm is mainly larvae. The plot area is 25 m^2 and 4 replicates and randomized block arrangement were set. The amount of spray liquid is 750 L/hm^2. It was sunny and there was no wind, with the highest temperature of 28° C. and the lowest of 15° C. on the day of the application. Chosen 10 plants from each plot and scored the larvae at different instars at fixing time. The base number was investigated before treatment. The number of living larvae was counted after 1 day, 3 days, 7 days and 14 days respectively after application and control efficacy was calculated.
as §3

[5] = test system: cabbage butterfly (Pierisrapae Linne); assay: Field trial against cabbage butterfly; format: in vivo; details: 105 g a.i./hm^2, 10% EC
Method: as §3
The trial was carried out in a farmer's vegetable field in Xiangcheng District Suzhou City. The variety of the cabbage is Xinxia 50. The dosage of the compound 1 are 75, 105, 150 g a.i./hm^2 and the comparative agent pyridalyl is 105 g a.i./hm^2. The agent was applied on 26 May 2011. The application tool is Singaporean Linong HD-400 type backpack spray. Evenly spraying to whole cabbage which is at vegetative growth phase was conducted, Cabbage butterfly is at a peak time of 1-3 instars of larvae. The plot area is 15 m^2, 4 replicates and randomized block arrangement were set. The amount of spray liquid is 750 L/hm^2. It was from sunny to cloudy with the highest temperature of 22.6° C., and the lowest of 17.8° C. on the day of the application of the spray. Chosen 10 plants from each plot and scored the larvae at different instars at fixing time. The base number was investigated before treatment. The number of living larvae was counted after 1 day, 4 days, 7 days and 12 days respectively after application and control efficacy was calculated.
Calculation method: the same as Example 13.

[6] = 6.25 mg/L, parallel determination
[7] = 25 mg/L, parallel determination
[8] = 50 mg/L, parallel determination

In the case of `FC(F)(F)c1cnc(Oc2ccc(OCCCOc3c(Cl)cc(OCC=C(Cl)Cl)cc3Cl)cc2)c(Cl)c1` [Compound 2], the mortality at 6.25 µg/mL (diamond back moth [1]; [6]) was 75%, the mortality at 25 µg/mL (diamond back moth [1]; [7]) was 100% and the mortality at 50 µg/mL (diamond back moth [1]; [8]) was 100%.

With `Fc1cc(Cl)cnc1Oc1ccc(OCCCOc2c(Cl)cc(OCC=C(Cl)Cl)cc2Cl)cc1` [Compound 3] the “control of the armyworm” value (armyworm) was 100%.

For `ClC(Cl)=CCOc1cc(Cl)c(OCCCOc2ccc(Oc3nc(Cl)c(Cl)cc3Cl)cc2)c(Cl)c1` [Compound 11], the “control of the armyworm” value (armyworm) was 100%.

For `ClC(Cl)=CCOc1cc(Cl)c(OCCCOc2ccc(Oc3ccccc3)cc2)c(Cl)c1` [Compound 38], the “control of the armyworm” value (armyworm) was 100%.

For `CC(C)(C)n1ncc(Oc2ccc(OCCCOc3c(Cl)cc(OCC=C(Cl)Cl)cc3Cl)cc2)c(Cl)c1=O` [Compound 57], the “control of the armyworm” value (armyworm) was 100%.

With `Fc1cccc(Cl)c1COc1ccc(OCCCOc2c(Cl)cc(OCC=C(Cl)Cl)cc2Cl)cc1` [Compound 72] the “control of the armyworm” value (armyworm) was 100%.

In the case of `ClC(Cl)=CCOc1cc(Cl)c(OCCCOc2ccc(OCc3cnc(Cl)s3)cc2)c(Cl)c1` [Compound 80], the “control of the armyworm” value (armyworm) was 100%.

In the case of `FC(F)(F)c1ccc(Oc2ccc(OCCCOc3ccc(OCC=C(Cl)Cl)cc3Cl)cc2)nc1` [Compound 83], the “control of the armyworm” value (armyworm) was 100%.

For `FC(F)(F)c1cnc(Oc2ccc(OCCCOc3ccc(OCC=C(Cl)Cl)cc3Cl)cc2)c(Cl)c1` [Compound 84], the “control of the armyworm” value (armyworm) was 100%.

With `FC(F)(F)c1ccc(Oc2ccc(OCCCOc3c(Cl)cc(OCC=C(Cl)Cl)c(Cl)c3Cl)cc2)nc1` [Compound 117] the “Mortality of armyworm (%)” value (armyworm; 10 mg/L) was 100%, the “Mortality of armyworm (%)” value (armyworm; 100 mg/L) was 100% and the “control of the armyworm” value (armyworm) was 100%.

With `FC(F)(F)c1cnc(Oc2ccc(OCCCOc3c(Cl)cc(OCC=C(Cl)Cl)c(Cl)c3Cl)cc2)c(Cl)c1` [Compound 118] the “control of the armyworm” value (armyworm) was 100%.

In the case of `ClC(Cl)=CCOc1cc(Cl)c(OCCCOc2ccc(Oc3nc4ccc(Cl)cc4o3)cc2)c(Cl)c1` [Compound 219], the “control of the armyworm” value (armyworm) was 100%, the mortality at 10 µg/mL (armyworm; 10 mg/L) was 70% and the mortality at 100 µg/mL (armyworm; 100 mg/L) was 100%.

Work on `FC(F)(F)c1cnc(Oc2ccc(OCCCOc3c(Cl)cc(OCC=C(Cl)Cl)cc3Cl)cc2Cl)c(Cl)c1` [Compound D-1, reference compound] yielded a mortality at 6.25 µg/mL (diamond back moth [1]; [6]) of 0%, a mortality at 25 µg/mL (diamond back moth [1]; [7]) of 30% and a mortality at 50 µg/mL (diamond back moth [1]; [8]) of 80%. For the same molecule, the “control on Heliothis virescens” value (Heliothis virescens) was “above 80%”, the mortality at 10 µg/mL (armyworm; 10 mg/L) was 30% and the mortality at 100 µg/mL (armyworm; 100 mg/L) was 90%. The “control against Prodenia litura” value (Prodenia litura) was “above 80%”.

Molecule `FC(F)(F)c1ccc(OCCCOc2c(Cl)cc(OCC=C(Cl)Cl)cc2Cl)nc1` [Compound D-2, pyridalyl, reference compound] has a mortality at 6.25 µg/mL (diamond back moth [1]) of 50%, a mortality at 25 µg/mL (diamond back moth [1]) of 75% and a mortality at 50 µg/mL (diamond back moth [1]) of 90%. The mortality at 10 µg/mL (housefly) was 0%, the mortality at 20 µg/mL (housefly) was 25% and the mortality at 2.5 µg/mL (beet armyworm [2]) was 16.7%. For the same molecule, the mortality at 10 µg/mL (beet armyworm [2]) was 100%, the “Control efficacy (%)” value (diamond back moth [3]; 1 day after treatment) was 95.1% and the “Control efficacy (%)” value (diamond back moth [3]; 3 days after treatment) was 97.0%. For the same molecule, the “Control efficacy (%)” value (diamond back moth [3]; 7 days after treatment) was 94.9%, the “Control efficiency (%)” value (beet armyworm [4]; 1 day after treatment) was 70.76% and the “Control efficiency (%)” value (beet armyworm [4]; 3 days after treatment) was 83.34%. For the same molecule, the “Control efficiency (%)” value (beet armyworm [4]; 7 days after treatment) was 78.33%, the “Control efficiency (%)” value (beet armyworm [4]; 14 days after treatment) was 61.21% and the “Control efficiency (%)” value ([5]; 1 day after treatment) was 49.7%. The “Control efficiency (%)” value ([5]; 4 day after treatment) was 84.3%, the “Control efficiency (%)” value ([5]; 7 day after treatment) was 88.5% and the “Control efficiency (%)” value ([5]; 12 days after treatment) was 75.8%.
